# Patent US8987263B2, “Basic esters of fatty alcohols and their use as anti-inflammatory or immunomodulatory agents” (priority 2002, dated 2015)
# Read-outs that look alike come from different tables or passages of the source.
# Assays:
# [1] = tested on: experimental autoimmune encephalomyelitis (EAE); settings: DA rats; 40 mg IV on day of immunization; vs untreated control; FIG. 2
# adjuvant arthritis (AA) = settings: Lewis rats
# [2] = tested on: delayed-type hypersensitivity (DTH) reaction; experiment: Oxazolone-induced DTH skin reaction, mouse ear-swelling test; type: in vivo, BALB/c mice; settings: for percent inhibition of DTH reaction: read after 24 hours; for reduction of inflammation in the DTH model: 0.5, 1, 2 and 4 mg in 40 μl 30 min after challenge, dexamethazone 2 mg/40 μl, FIG. 5
# Procedure: Delayed-type hypersensitivity (DTH), a localized inflammatory reaction induced by cytokines secreted by certain TH cells when they encounter certain types of antigens, is an established experimental model for skin inflammation.
# As a first step, DTH reactions were induced in the skin of 8-week-old female BALB/c mice. The mice were sensitized by topical application of 200 μl of a 2% oxazolone (4-ethoxymethylene-2-phenyl-2-oxazolin-5-one; Sigma, St. Louis, Mo.) solution in acetone/olive oil (4:1, vol/vol) to the shaved abdomen of the mice. Six days after sensitization, one ear of each mouse was challenged by topical application of 20 μl of a 0.5% oxazolone solution.
# Mice were induced with DTH as in Example 17. […] In addition, a positive control of dexamethazone (2 mg/40 μl) was administered. A group of DTH induced mice was also treated with (4-Methyl-piperazin-1-yl)-acetic acid ethyl ester HCl (negative control.)
# EAE [3] = settings: Lewis rats
# Procedure: EAE is induced in 7-9 weeks old female Lewis rats by injecting each foot pad with 25 μg of guinea MBP (50 μg total) in CFA (Sigma). The disease develops about 12 days after immunization and is characterized by paralysis of various degrees due to inflammation of the central nervous system. The rats are scored for paralysis on a scale of 0-4, as described above in Example 13.
# EAE was induced in 8-week-old female Lewis rats as described in Example 15 above with guinea pig MBP in CFA.
# (§1) The rats were scored for EAE on a severity scale of 0-4 as described above.
# as §1
# Rats were treated with Compound 9 (100 mg/Kg) per os. The rats were scored for EAE on a severity scale of 0-4 as described above.
# EAE [4] = type: in vivo; settings: CSJL/F1 mice, GA 5.0 mg/mouse, Compound 3 0.5 mg/mouse
# Procedure: (§2) EAE was tested in CSJL/F1 mice, immunological response was tested in C57BL/J6 mice. Healthy, specific pathogen-free, female CSJLF/1 and male C57BL/J6 mice, were obtained from Harlan Animal Breeding Center, Jerusalem, Israel. The mice were 9-week old at the initiation of the study, weighing 20 g±15%.
# (i) The mice were divided into 4 test groups as shown below:
# For immunization of group 1, a GA solution in PBS (100 mg/mL) was diluted 1:2 in IFA to yield a final concentration of 50 mg/mL for injection of 5.0 mg/mouse GA (0.1 ml). The GA+IFA mixtures were transferred into a syringe (2.5 mL) connected to a second syringe through a Luer lock bridge and mixed well by transferring the material from one syringe to another for about 10 minutes until the material was well emulsified.
# EAE was induced by injecting the encephalitogenic agent consisting of MSCH and commercial CFA containing Mycobacterium tuberculosis H37Ra to the foot-pads of the animals and pertussis toxin IV.
# They were weighed before immunization and once a week thereafter until the termination of the study. Ten days after induction of EAE, the mice were examined for EAE clinical signs and scored. The EAE clinical signs were observed and scored from the 9th day post-EAE induction until the termination of the experiment according to the following five-graded scale to assess clinical severity: 0, normal behavior; 1, weight loss; 2, tail weakness; 3, hind legs hypotonia and weakness; 4, hind legs paralysis; 4, severe total paralysis; 5, impaired respiration and/or convulsions and/or full paralysis or death.
# Calculation of mortality: The number of sick and dead animals in each group was determined, and the incidence of disease and mortality rate was calculated as follows: […]
# Calculation of percent activity: The percentage activity according to mortality was calculated as follows: […]
# Calculation of mean duration of disease and onset of disease: The mean duration of the disease and onset of disease expressed in days was calculated.
# Calculation of the mean maximal score and percent inhibition: The maximal scores of each of the 10 mice in the test group were summed.
# The mean maximal score (MMS) of the group was calculated as follows: […]
# The percent inhibition was calculated as follows: […]
# Calculation of the mean group score and percent inhibition: The scores of each of the 10 mice in the test group was summed.
# The mean group score (GMS) of the group was calculated as follows: […]
# [5] = type: in vivo
# Procedure: The mice were scored according to following chart: 0—normal behavior; 1—slight toxic signs (piloerection); 2—moderate toxic signs (partial eye lid closure, hunched posture, hypoactivity, apathy); 3—severe toxic signs (ataxia, convulsions, gasping respiration, paralysis, unconscious); 4—death. Mice were weighed before immunization and on the day of the termination of the study. […] The spleens were weighed and spleen/body weight ratio was calculated.
# [6] = tested on: Spleen Cells of GA Immumized Mice; experiment: IL-2 secretion from spleen cells of immunized mice (ELISA); type: cell-based, C57BL/J6 mice; design: IL-2 Secretion from 5 × 10^6 Spleen Cells: unit not given here
# Procedure: as §2
# (i) The mice were divided into 6 test groups as shown below:
# Mice were immunized 10 days prior to spleen collection.
# A solution of GA in PBS (final GA concentration of 1.5 mg/mL, for dose of 75 μg/mouse) was diluted in CFA to yield a final concentration of 0.75 mg/mL for dose of 75 μg/mouse GA. The mixtures (GA+CFA) were transferred into a syringe (2.5 mL) connected to a second syringe through a Luer lock bridge and mixed well by transferring the material from one syringe to another for about 10 minutes until the material is well emulsified.
# GA (20 mg vial) was dissolved in PBS to yield 20 mg/mL solution, then further diluted in PBS to yield a final GA concentration of 1.5 mg/mL for dose of 75 μg/mouse. Equal volumes of Compound 3 and GA or PBS for control group were mixed.
# Spleens were collected and pooled for each group in sterile RPMI medium. Cells were extracted resuspended in enriched DCCM1 medium and counted. […] Supernatants were collected and tested for levels of cytokines secretion.
# (vii) Detection of cytokine secretion in primary cultures from spleens was performed employing ELISA. Cells were activated in-vitro and IL-2 secretion levels were detected using commercial kits according to the provider's instructions.
# [7] = 0.2 mg per os every day from EAE induction
# [8] = 1 mg per os every day from EAE induction
# [9] = 2 mg per os every day from EAE induction
# [10] = 10 mg per os every day from EAE induction
# [11] = 20 mg per os every day from EAE induction
compound,measurement,setting,value
"CCCCCCCC/C=C\CCCCCCCCOC(=O)CN(C)C [Compound 1, N,N-Dimethylamino-acetic acid octadec-(Z)-9-enyl ester]",prevention of paralysis (EAE score 0-4),[1],could prevent the paralysis to a significant degree
same,protection against the inflammation caused by AA (AA score 0-16),"adjuvant arthritis (AA); 40 mg IV on day 0 or on day 14 after onset of AA, FIG. 1",could protect the rats against the inflammation caused by AA
"CCCCCCCC/C=C\CCCCCCCCOC(=O)CN1CCN(C)CC1.O=C(O)C(O)C(O)C(=O)O [Compound 3, (4-Methyl-piperazin-1-yl)-acetic acid octadec-(Z)-9-enyl ester tartrate]",percent inhibition of DTH reaction,[2]; 1 mg topical on challenged ear 30 min after challenge,12.5%
same,percent inhibition of DTH reaction,[2]; 2 mg topical on challenged ear 30 min after challenge,8%
same,% inhibition,EAE [3]; [7],28%
same,Mean Clinic Score,EAE [3]; [7],2.1
same,% inhibition,EAE [3]; [8],28%
same,Mean Clinic Score,EAE [3]; [8],2.1
same,% inhibition,EAE [3]; [9],14%
same,Mean Clinic Score,EAE [3]; [9],2.5
same,% inhibition,EAE [3]; [10],28%
same,Mean Clinic Score,EAE [3]; [10],2.1
same,% inhibition,EAE [3]; [11],41%
same,Mean Clinic Score,EAE [3]; [11],1.7
same,protection against EAE,"EAE [3]; administered subcutaneously (10-200 mg, day 7 before induction) or orally",could protect the rats against EAE
same,effect on EAE,EAE [3]; per os every other day from day of EAE induction (not shown),similarly effective
same,GMS (group mean score) Value ± S.D.,EAE [4],3.3 ± 0.6
same,MMS (mean maximal score) Value ± S.D.,EAE [4],4.7 ± 0.5
same,Mean Duration,EAE [4],4.7 ± 0.5 days
same,Mean onset,EAE [4]; SC immunization 11 days before EAE induction,10.3 ± 0.5 days
same,GMS inhibition (inh.* 3),EAE [4]; vs PBS control,3.2%
same,MMS inhibition (inh.* 2),EAE [4]; vs PBS control,.0%
same,effect on mice weight,"[5]; Compound 3 50 and 500 μg/mouse, with or without GA 75 μg/mouse",no adverse effect
same,signs of immunosuppression,[5]; Compound 3 with or without GA,no signs of immunosuppression
same,effect on non-specific Con-A activation (IL-2),[6]; Con A as non-specific activator,no effect
same,IL-2 Secretion from 5 × 10^6 Spleen Cells,"[6]; GA activator conc. 2.5 (mg/mL), Comp. 3 50 μg/m (GA 75 μg/m where combined)",UQL
same,IL-2 Secretion from 5 × 10^6 Spleen Cells,"[6]; GA activator conc. 2.5 (mg/mL), Comp. 3 500 μg/m (GA 75 μg/m where combined)",UQL
same,IL-2 Secretion from 5 × 10^6 Spleen Cells,"[6]; GA activator conc. 25.0 (mg/mL), Comp. 3 50 μg/m (GA 75 μg/m where combined)",UQL
same,IL-2 Secretion from 5 × 10^6 Spleen Cells,"[6]; GA activator conc. 25.0 (mg/mL), Comp. 3 500 μg/m (GA 75 μg/m where combined)",7.9
same,IL-2 Secretion from 5 × 10^6 Spleen Cells,"[6]; activator Con A 2.5 (mg/mL), Comp. 3 50 μg/m (GA 75 μg/m where combined)",426.8
same,IL-2 Secretion from 5 × 10^6 Spleen Cells,"[6]; activator Con A 2.5 (mg/mL), Comp. 3 500 μg/m (GA 75 μg/m where combined)",426.8
same,IL-2 Secretion from 5 × 10^6 Spleen Cells,"[6]; activator conc. 0, Comp. 3 50 μg/m (GA 75 μg/m where combined)",UQL
same,IL-2 Secretion from 5 × 10^6 Spleen Cells,"[6]; activator conc. 0, Comp. 3 500 μg/m (GA 75 μg/m where combined)",UQL
same,IL-2 secretion from spleen cells in response to GA,"[6]; immunized with Compound 3 without GA, 50 and 500 μg/mouse",not elevated
same,protection against AA,"adjuvant arthritis (AA); 10, 50, 100 or 200 mg SC at day -7 before induction, FIG. 6",could protect the rats against AA
"CCCCCCCC/C=C\CCCCCCCCOC(=O)c1ccc(CN(C)C)cc1.Cl [Compound 5, 4-dimethylaminomethyl-benzoic acid octadec-(Z)-9-enyl ester HCl]",reduction of inflammation in the DTH model,[2],inhibit DTH Skin Reaction
"CCCCCCCC/C=C\CCCCCCCCOC(=O)CN1CCNCC1.O=C(O)C(O)C(O)C(=O)O [Compound 9, Piperazin-1-yl-acetic acid octadec-(Z)-9-enyl ester bitartrate]",reduction of inflammation in the DTH model,[2],inhibit DTH Skin Reaction
same,protection against EAE,"EAE [3]; 100 mg/Kg administered orally, FIG. 9",could protect the rats against EAE
same,% Sick rats,EAE [3]; 100 Mg/Kg per os,100%
same,% inhibition,EAE [3]; 100 Mg/Kg per os,31.4%
same,Mean Clinic Score,EAE [3]; 100 Mg/Kg per os,1.93 ± 0.45
same,Mean onset,EAE [3]; 100 Mg/Kg per os,11.5
"CCCCCCCC/C=C\CCCCCCCCOC(=O)C(N)c1ccccc1.Cl (stereo not drawn) [Compound 11, α-Amino-α-phenyl-acetic acid octadec-(Z)-9-enyl ester HCl salt]",reduction of inflammation in the DTH model,[2],inhibit DTH Skin Reaction
"C[C@@H]1C[C@H]2[C@@H]3CCC4=CC(=O)C=C[C@]4(C)[C@@]3(F)[C@@H](O)C[C@]2(C)[C@@]1(O)C(=O)CO [dexamethazone, reference compound]",reduction of inflammation in the DTH model,[2],positive results in reducing inflammation
"CCOC(=O)CN1CCN(C)CC1.Cl [negative control, (4-Methyl-piperazin-1-yl)-acetic acid ethyl ester HCl, reference compound]",reduction of inflammation in the DTH model,[2],did not show any positive results
"glatiramer acetate [GA, reference compound]",IL-2 Secretion from 5 × 10^6 Spleen Cells,"[6]; GA activator conc. 2.5 (mg/mL), mice immunized with GA 75 μg/m, no Comp. 3",47.9
same,IL-2 Secretion from 5 × 10^6 Spleen Cells,"[6]; GA activator conc. 25.0 (mg/mL), mice immunized with GA 75 μg/m, no Comp. 3",124.3
same,IL-2 Secretion from 5 × 10^6 Spleen Cells,"[6]; activator Con A 2.5 (mg/mL), mice immunized with GA 75 μg/m, no Comp. 3",419.6
same,IL-2 Secretion from 5 × 10^6 Spleen Cells,"[6]; activator conc. 0, mice immunized with GA 75 μg/m, no Comp. 3",UQL
